Tested on: vasopressin V2 receptors
Test: Vasopressin V2 agonist effects in normal conscious water-loaded rats
Type: in vivo
Settings: oral dose of 10 mg/Kg, urine collected for four hours, Sprague-Dawley (CD) rats; for Changes in Urinary Osmolality: osmolality changes expressed as percent of control; for Urine Volume (% decrease): percent decrease in urine volume vs. control
Description: Vasopressin V2 Agonist Effects of Test Compounds in Normal Conscious Water-Loaded Rats:
Male or female normotensive Sprague-Dawley rats (Charles River Laboratories, Inc., Kingston, NY) of 350-500 g body weight were supplied with standard rodent diet (Purina Rodent Lab. Chow 5001) and water ad libitum. On the day of test, rats were placed individually into metabolic cages equipped with devices to separate the feces from the urine and containers for collection of urine. A test compound or a reference agent was given at an oral dose of 10 mg/Kg in a volume of 10 mL/Kg. The vehicle used was 20% dimethylsulfoxide (DMSO) in 2.5% preboiled corn starch. Thirty minutes after dosing the test compound, rats were gavaged with water at 30 mL/Kg into the stomach using a feeding needle. During the test, rats were not provided with water or food. Urine was collected for four hours after dosing of the test compound. At the end of four hours, urine volume was measured. Urinary osmolality was determined using a Fiske One-Ten Osmometer (Fiske Associates, Norwood, MA, 02062) or an Advanced CRYOMATIC Osmometer, Model 3C2 (Advanced Instruments, Norwood, MA). Determinations of Na^+, K^+- and Cl^- ion were carried out using ion specific electrodes in a Beckman SYNCHRON EL-ISE Electrolyte System analyzer. The urinary osmolality should increase proportionally. In the screening test, two rats were used for each compound. If the difference in the urine volume of the two rats was greater than 50%, a third rat was used.

Row | SMILES | Changes in Urinary Osmolality | Urine Volume (% decrease)
1 | Cn1ccc2cc(C(=O)N3Cc4cccn4Cc4ccccc43)ccc21 [Example 1, (5H-10,11-Dihydro-pyrrolo [2,1-c][1,4]benzodiazepin-10-yl)-(1-methyl-1H-indol-5-yl)-methanone] | 174% of control | 66 % decrease
2 | O=C(c1ccc2c(c1)OCO2)N1Cc2cccn2Cc2ccccc21 [Example 2, Benzo[1,3]dioxol-5-yl-(5H-10,11-dihydro-pyrrolo [2,1-c][1-4]benzodiazepin-10-yl)-methanone] | 41% of control | 23 % decrease
3 | O=C(c1ccc2c(c1)CCO2)N1Cc2cccn2Cc2ccccc21 [Example 3, (2,3-Dihydro-benzofuran-5-yl)-(5H-10,11-dihydro-pyrrolo[2,1-c][1,4]benzodiazepin-10-yl)-methanone] | 10% of control | 32 % decrease
4 | O=C(c1ccc2ncsc2c1)N1Cc2cccn2Cc2ccccc21 [Example 4, (Benzothiazol-6-yl)-(5H-10,11-dihydro-pyrrolo[2,1-c][1,4]benzodiazepin-10-yl)-methanone] | 3% of control | 19 % decrease

— patent EP1149104B1, “PYRROLOBENZODIAZEPINE CARBOXYAMIDE VASOPRESSIN AGONISTS” (Wyeth, priority 1999, dated 2000)
